Earlier results in patent US20180326089A1, “PROTEIN NANOSTRUCTURE BASED DRUG DELIVERY SYSTEM FOR THE DELIVERY OF THERAPEUTIC AGENTS TO THE ANTERIOR SEGMENT OF THE EYE” (Council of Scientific & Industrial Research, priority 2015, published 2018).

SMILES: CC(=O)N1CCN(c2ccc(OCC3COC(Cn4ccnc4)(c4ccc(Cl)cc4Cl)O3)cc2)CC1 (stereo not shown) [Ketoconazole]
- water solubility: poorly water soluble
